# Measured values: patent US20250101448A1, “Protein, Gene and Their Vectors and Applications that Control Symbiotic Nitrogen Fixation Efficiency of Soybeans” (priority 2022, published 2025)
# Experiments:
# [1] = test system: GmNAP1 protein; test: isothermal titration calorimetry, binding of GmNAP1 to AMP/ADP/ATP/cAMP; parameters: species or system soybean; conditions: ITC, GmNAP1 expressed in Escherichia coli and purified
# Text: (§1) Utilize the prokaryotic expression system of Escherichia coli to express and purify GmNAS1 and GmNAP1 proteins; and then utilize isothermal titration calorimetry to detect the binding ability of GmNAS1/GmNAP1 to AMP, ADP, ATP and cAMP.
# [2] = test system: GmNAS1 protein lacking any one CBS functional domain; test: isothermal titration calorimetry, GmNAS1 protein lacking a CBS functional domain, binding to AMP; parameters: species or system soybean; conditions: ITC
# Text: as §1
# [3] = test system: interaction between GmNAS1 and GmNFYC10a; test: pull-down of GmNAS1 and GmNFYC10a interaction; assay type: binding, soybean
# [4] = test system: GmNFYC10a-GFP; test: GmNFYC10a-GFP fluorescence localization in sections of mature root nodules; assay type: cell-based, soybean; conditions: nodule sections treated for 2 hours, 25 days after inoculation with Rhizobia
# Text: This application also uses co-immunoprecipitation coupled mass spectrometry analysis technology to search for candidate proteins that bind to GmNAP1. In the mass spectrometry results, a transcription factor GmNFYC10a is discovered. […] In order to verify this speculation, we first obtains GmNFYC10a-GFP transgenic hairy roots, and carrying out vibration sectioning of mature root nodules 25 days after inoculation with Rhizobia. […] (FIG. 14).
# [5] = test system: GmNAS1 protein; test: isothermal titration calorimetry, binding of GmNAS1 to AMP/ADP/ATP/cAMP; parameters: species or system soybean; conditions: ITC
# Text: as §1
# [6] = test system: soybean root nodules; test: nodule nitrogenase activity after sucrose treatment of plants inoculated with USDA110; assay type: in vivo; conditions: wild-type W82, 3% (w/v) sucrose solution for three days
# Protocol: Design editing site identification primers based on the target sequences of sgRNA on GmNAS1 and GmNAP1, amplify the corresponding fragments and send them for sequencing. The sequencing results are analyzed and four function loss mutants of cr-nas1, cr-nap1, cr-nas1nap1-1 and cr-nas1nap1-2 are obtained. The nodule number, nodule weight and nodule nitrogenase activity on the 25th day after the mutant plants are inoculated with Rhizobia USDA110 are measured.
# By utilizing gene editing technology, we obtain the functional knockout mutant cr-nas1 of GmNAS1, the functional knockout mutant cr-nap1 of GmNAP1, and the double knockout mutants cr-nas1nap1-1 and cr-nas1nap1-2 of GmNAS1 and GmNAP1. The root nodules of these four soybean mutants are phenotypically determined 25 days after inoculation with USDA110.
# [7] = test system: soybean root nodule cells; test: GmNFYC10a nuclear protein level and glycolysis gene expression in root nodules before and after sucrose treatment; assay type: in vivo; conditions: after sucrose treatment
smiles,measurement,setting,value
Nc1ncnc2c1ncn2[C@@H]1O[C@H](COP(=O)(O)OP(=O)(O)O)[C@@H](O)[C@H]1O [ADP],binding to GmNAP1,[1],does not bind
Nc1ncnc2c1ncn2[C@@H]1O[C@H](COP(=O)(O)O)[C@@H](O)[C@H]1O [AMP],binding to GmNAS1 protein lacking any one CBS functional domain,[2],not capable of binding
same,binding to GmNAP1,[1],does not bind
same,effect on interaction between GmNAS1 and GmNFYC10a,[3],significantly inhibit
same,GmNFYC10a-GFP fluorescence in the nucleus,[4],increased significantly
Nc1ncnc2c1ncn2[C@@H]1O[C@H](COP(=O)(O)OP(=O)(O)OP(=O)(O)O)[C@@H](O)[C@H]1O [ATP],binding to GmNAP1,[1],does not bind
same,binding to GmNAS1,[5],does not bind
CC[C@H]1/C=C/C=C/C[C@@H](C)[C@H](O)[C@@](C)(O)C(=O)[C@@H](C)[C@H](O)[C@@H](C)C(=O)[C@@H](C)[C@H](O)[C@@H](C)/C=C/C(=O)O[C@@H]2[C@H](C)[C@H](CC1)O[C@]1(CC[C@H](C)[C@H](C[C@@H](C)O)O1)[C@H]2C [oligomycin],GmNFYC10a-GFP fluorescence in the nucleus,[4],increased significantly
OC[C@H]1O[C@@](CO)(O[C@H]2O[C@H](CO)[C@@H](O)[C@H](O)[C@H]2O)[C@@H](O)[C@@H]1O [sucrose],nitrogenase activity of wild-type plants vs plants without sucrose,[6],significantly higher
same,protein content of GmNFYC10a in the nucleus,[7]; nuclei of soybean root nodule cells,decreases significantly
same,expression of glycolysis-related genes,[7]; root nodules,significantly down-regulated
